Test systems include SK-MEL-5; K562; SN12C; MCF7; RPMI-8226; SW-620; SF-268; SF-295; UACC-62; M14; OVCAR-4; SF-539; SK-MEL-2; NCI-H23; CAKI-1; TK-10; NCI-H226; DU-145.
Common to all, as to experiment: NCI anticancer screen, dose series, 48 h

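Five concentrations, 48 hours, 96-well plates. GI50: concentration for 50% inhibition of growth.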 The source made the active and inactive calls. Rule as the data show it: active = GI50 up to about 1.1 µM and inactive = higher.

With `C[N+]1(C)CN(c2ccccc2)C2(CCN(CCCC(=O)c3cccs3)CC2)C1=O`, the GI50 with SK-MEL-5 is 28.1 µM (inactive); in the test with K562 it was 76 µM (inactive); in the test with SN12C it was > 100 µM (inactive); in the test on MCF7, 53.8 µM (inactive); in the test on RPMI-8226, 47.3 µM (inactive); in the test on SW-620, > 100 µM (inactive). In addition, the GI50 was > 100 µM (inactive) in the test on SF-268; > 100 µM (inactive) with SF-295; > 100 µM (inactive) with UACC-62; 23.2 µM (inactive) in the test with M14; 96.8 µM (inactive) in the test on OVCAR-4; > 100 µM (inactive) in the test on SF-539. Also, the GI50 in the test with SK-MEL-2 is > 100 µM (inactive); in the test with NCI-H23, 82.6 µM (inactive); with CAKI-1 it was > 100 µM (inactive); with TK-10, > 100 µM (inactive); in the test with NCI-H226 it was > 100 µM (inactive); with DU-145, > 100 µM (inactive).

Turning to `CC(NNC(=O)c1cc[n+]([BH2-]C#N)cc1)c1ccc(Cl)c(Cl)c1` (configuration not stated), the GI50 with SK-MEL-5 was 19.7 µM (inactive); with K562, 34.9 µM (inactive); with SN12C, 34.5 µM (inactive); in the test on MCF7, 26.9 µM (inactive); in the test with RPMI-8226, 33.5 µM (inactive); in the test with SW-620, 45.1 µM (inactive). Moreover, the GI50 was 39.6 µM (inactive) with SF-268; 29.6 µM (inactive) with SF-295; 29.7 µM (inactive) in the test with UACC-62; 38.1 µM (inactive) in the test on M14; 30.9 µM (inactive) in the test on OVCAR-4; 38.9 µM (inactive) with SF-539. Moreover, the GI50 in the test on SK-MEL-2 is 32.2 µM (inactive); in the test with NCI-H23 it was 20.7 µM (inactive); in the test on CAKI-1 it was 18.1 µM (inactive); in the test on TK-10, 28.6 µM (inactive); with NCI-H226, 22.4 µM (inactive); in the test with DU-145, 37.8 µM (inactive).

Regarding `COc1ccc(C2C3CCc4ccccc4C3=NN2S(=O)(=O)c2cccc(C(=O)O)c2OC)cc1` (configuration not stated), the GI50 with SK-MEL-5 was 6.62 µM (inactive); in the test with K562 it was 4.06 µM (inactive); with SN12C, 27.3 µM (inactive); in the test on MCF7, 2.19 µM (inactive); with RPMI-8226, 9.55 µM (inactive); in the test on SW-620, 6.98 µM (inactive). Further, the GI50 is 14 µM (inactive) with SF-268; 9.23 µM (inactive) in the test on SF-295; 6.14 µM (inactive) in the test with UACC-62; 15.8 µM (inactive) with M14; 19.4 µM (inactive) with OVCAR-4; 6.21 µM (inactive) in the test with SF-539. Further, the GI50 in the test with SK-MEL-2 was 15.7 µM (inactive); with NCI-H23, 52.4 µM (inactive); in the test with CAKI-1, 22.5 µM (inactive); in the test on TK-10, 22.9 µM (inactive); in the test with NCI-H226, 19.8 µM (inactive); in the test on DU-145 it was 27.7 µM (inactive).

Regarding `Cc1c(Cc2ccccc2)n(COCCCO)c(=O)[nH]c1=O`, the GI50 in the test with SK-MEL-5, in the test with K562, with SN12C, in the test with MCF7, in the test with RPMI-8226 and in the test on SW-620 was > 100 µM (inactive) in each case. The GI50 in the test on SF-268, with SF-295, in the test on UACC-62, in the test on M14, with OVCAR-4 and in the test on SF-539 was > 100 µM (inactive) each time. Moreover, the GI50 in the test on SK-MEL-2, in the test on NCI-H23, with CAKI-1, in the test with TK-10, in the test with NCI-H226 and with DU-145 was > 100 µM (inactive) in each case.

In the case of `Cc1cc(S(=O)(=O)NC2=NCc3nc4ccccc4n32)c(S)cc1Cl`, the GI50 in the test with SK-MEL-5 was 16.9 µM (inactive); in the test with K562, 42.9 µM (inactive); with SN12C it was 23.5 µM (inactive); with MCF7 it was 30.3 µM (inactive); with RPMI-8226, 20.3 µM (inactive); in the test with SW-620, 47.6 µM (inactive). The GI50 was 32 µM (inactive) with SF-268; 19.9 µM (inactive) in the test with SF-295; 17.1 µM (inactive) with UACC-62; 23.7 µM (inactive) in the test with M14; 29.4 µM (inactive) in the test on OVCAR-4; 20.7 µM (inactive) with SF-539. Besides, the GI50 is 13.5 µM (inactive) with SK-MEL-2; 35.2 µM (inactive) in the test on CAKI-1; 38.8 µM (inactive) in the test on TK-10; 20 µM (inactive) in the test with NCI-H226; 31.2 µM (inactive) in the test with DU-145.

With `C[N+](C)(C)/C=N\c1cccc2c1CCCC2`, the GI50 in the test on SK-MEL-5 is 41.2 µM (inactive); in the test with K562, 18 µM (inactive); in the test with SN12C, > 100 µM (inactive); with MCF7, > 100 µM (inactive); in the test on RPMI-8226, 21.5 µM (inactive); in the test with SF-268, > 100 µM (inactive). Besides, the GI50 with SF-295, in the test with UACC-62, in the test with M14, in the test with OVCAR-4, with SF-539 and in the test on SK-MEL-2 was > 100 µM (inactive) each time. The GI50 in the test with NCI-H23 is 79.6 µM (inactive); in the test on CAKI-1 it was > 100 µM (inactive); in the test on TK-10 it was > 100 µM (inactive); in the test with NCI-H226, 58.2 µM (inactive); in the test with DU-145, > 100 µM (inactive).

As to `COc1ccc(NC(=S)c2ccc([N+](=O)[O-])o2)cc1`, the GI50 is 0.65 µM (active) in the test on SK-MEL-5; 2.07 µM (inactive) with K562; 2.13 µM (inactive) with SN12C; 1.8 µM (inactive) in the test with MCF7; 1.19 µM (inactive) with RPMI-8226; 0.918 µM (active) in the test on SW-620. In addition, the GI50 with SF-268 was 2.04 µM (inactive); in the test with SF-295, 3.6 µM (inactive); in the test on UACC-62, 1.77 µM (inactive); in the test with M14, 2.88 µM (inactive); in the test with OVCAR-4 it was 1.55 µM (inactive); in the test with SF-539, 0.178 µM (active). The GI50 in the test on SK-MEL-2 is 1.69 µM (inactive); with NCI-H23, 1.6 µM (inactive); with CAKI-1, 3.44 µM (inactive); with TK-10, 3.07 µM (inactive); in the test with NCI-H226, 0.82 µM (active); with DU-145, 3.17 µM (inactive).

On to `COCCN(C(=O)c1ccccc1)C1CCC(=O)c2[nH]c3ccccc3c21` (configuration not stated), for which the GI50 with SK-MEL-5 is 7.14 µM (inactive); in the test with K562 it was 3.85 µM (inactive); in the test with SN12C, 7.85 µM (inactive); in the test on MCF7 it was 6.27 µM (inactive); with RPMI-8226, 17.7 µM (inactive); with SW-620, 8.28 µM (inactive). Further, the GI50 was 9.12 µM (inactive) with SF-268; > 41 µM (inactive) with SF-295; 17.8 µM (inactive) in the test on UACC-62; 7.11 µM (inactive) in the test with M14; 6.81 µM (inactive) in the test with OVCAR-4; 7.1 µM (inactive) in the test with SF-539. The GI50 was 5.38 µM (inactive) in the test on SK-MEL-2; 17.7 µM (inactive) in the test with NCI-H23; 4.58 µM (inactive) in the test with CAKI-1; 20.3 µM (inactive) with TK-10; 6.28 µM (inactive) in the test with NCI-H226; 14.7 µM (inactive) with DU-145.

Values taken from ChEMBL document CHEMBL1201862, “PubChem BioAssay data set” (2004).
